Laboratory results reported in patent US8034822B2, “Glucokinase activators” (Takeda San Diego, Inc., priority 2006, dated 2011).
pEC50: −log10 of the molar value.

target: T1, glucokinase (GK) (Homo sapiens, UniProt P35557); assay: enzymatic glucokinase activity assay (ATP consumption, KinaseGlo luminescence); type: biochemical; settings: Against GK; Kact = concentration giving 50% of maximal increase in GK activity; 5 μM ATP, 5 mM Glucose, 60 min room temperature; values given as bins; read-out: pKact
T1 construct: I.D. No. 1 corresponds to residues 12-465 of glucokinase; made in house; host or cells: E. coli DH10b-T1r, pFLAG-CTC plasmid
T1 sequence (P35557 with tags, fused parts or gaps isoform P35557-2): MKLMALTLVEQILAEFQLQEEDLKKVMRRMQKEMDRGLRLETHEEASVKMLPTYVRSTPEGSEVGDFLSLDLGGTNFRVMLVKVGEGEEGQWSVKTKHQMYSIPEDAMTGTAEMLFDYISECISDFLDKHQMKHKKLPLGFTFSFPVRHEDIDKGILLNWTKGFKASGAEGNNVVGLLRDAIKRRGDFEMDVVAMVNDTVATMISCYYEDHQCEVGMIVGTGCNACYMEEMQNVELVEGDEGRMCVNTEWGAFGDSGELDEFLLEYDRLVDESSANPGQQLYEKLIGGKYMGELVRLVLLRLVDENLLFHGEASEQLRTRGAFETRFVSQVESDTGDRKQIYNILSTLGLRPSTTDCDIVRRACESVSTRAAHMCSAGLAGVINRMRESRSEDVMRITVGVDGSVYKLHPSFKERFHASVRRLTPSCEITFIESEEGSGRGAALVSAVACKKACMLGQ
From the text: The activity of compounds as glucokinase activators may be assayed in vitro, in vivo or in a cell line. Provided below is an enzymatic glucokinase activity assay.
Purified glucokinase may be obtained as follows. DNA encoding residues 12-465 of the full-length sequence of the human enzyme may be amplified by PCR and cloned into the HindIII and EcoRI sites of pFLAG-CTC (Sigma). SEQ. I.D. No. 1 corresponds to residues 12-465 of glucokinase.
The expression of recombinant glucokinase protein may be carried out by transformation and growth of DH10b-T1r E. coli cells incorporating the (pFLAG-CTC) plasmid in LB media. Protein expression can be induced in this system by the addition of IPTG to the culture medium.
Recombinant protein may be isolated from cellular extracts by passage over Sepharose Q Fast Flow resin (Pharmacia). This partially purified GK extract may then be further purified by a second passage over Poros HQ10 (Applied Biosystems). The purity of GK may be determined on denaturing SDS-PAGE gel. Purified GK may then be concentrated to a final concentration of 20.0 mg/ml. After flash freezing in liquid nitrogen, the proteins can be stored at −78° C. in a buffer containing 25 mM TRIS-HCl pH 7.6, 50 mM NaCl, and 0.5 mM TCEP.
The activation properties of compounds for GK may be determined using a black 384-well-plate format under the following reaction conditions: 25 mM Hepes pH 7.2, 25 mM NaCl, 10 mM MgCl2, 0.01% Brij35, 1 mM DTT, 5 μM ATP, 5 mM Glucose 2% DMSO. The amount of ATP consumed may be determined quantitatively by addition of equal volume of luciferase reagent (luciferase+beetle luciferin—KinaseGlo Luminescent Kinase Assay kit from Promega). The luminescence intensity may be measured by using the Analyst HT from LJL Biosystems.
The assay reaction may be initiated as follows: 4 μl of substrate mixture (12.5 μM ATP and 12.5 mM Glucose) was added to each well of the plate, followed by the addition of 2 μl of activator (2 fold serial dilutions for 11 data points for each activator) containing 10% DMSO. 4 μL of 1.25 nM GK solution may be added to initiate the reaction. The reaction mixture may then be incubated at room temperature for 60 min, and quenched and developed by addition of 10 μL of luciferase reagent. Luminescence intensities of the resulting reaction mixtures may be measured after a 10 min incubation at room temperature. The luminescence intensity may be measured by using the Analyst HT from LJL Biosystems.
pKact and % ACTmax values may be calculated by non-linear curve fitting of the compound concentrations and luminescence intensities to a standard inhibition/activation equation.

pEC50 | SMILES
5.80 to 6.00 | CN(C)CCNC(=O)c1ccc2c(=O)n(C(CC3CCCCC3)C(=O)Nc3ncc(Cl)s3)cnc2c1 (centres unmarked) [Compound 176, 3-(1-(5-chlorothiazol-2-ylamino)-3-cyclohexyl-1-oxopropan-2-yl)-N-(2-(dimethylamino)ethyl)-4-oxo-3,4-dihydroquinazoline-7-carboxamide]
6.10 to 6.30 | CN(C)CCNC(=O)c1ccc2c(=O)n(C(CC3CCCCC3)C(=O)Nc3ncc(Cl)s3)c(=O)[nH]c2c1 (centres unmarked) [Compound 177, 3-(1-(5-chlorothiazol-2-ylamino)-3-cyclohexyl-1-oxopropan-2-yl)-N-(2-(dimethylamino)ethyl)-2,4-dioxo-1,2,3,4-tetrahydroquinazoline-7-carboxamide]
5.80 to 6.00 | CN1CCC(CNC(=O)c2ccc3c(=O)n(C(CC4CCCCC4)C(=O)Nc4ncc(Cl)s4)cnc3c2)CC1 (centres unmarked) [Compound 178, 3-(1-(5-chlorothiazol-2-ylamino)-3-cyclohexyl-1-oxopropan-2-yl)-N-((1-methylpiperidin-4-yl)methyl)-4-oxo-3,4-dihydroquinazoline-7-carboxamide]
6.10 to 6.30 | CN1CCC(CNC(=O)c2ccc3c(=O)n(C(CC4CCCCC4)C(=O)Nc4ncc(Cl)s4)c(=O)[nH]c3c2)CC1 (centres unmarked) [Compound 179, 3-(1-(5-chlorothiazol-2-ylamino)-3-cyclohexyl-1-oxopropan-2-yl)-N-((1-methylpiperidin-4-yl)methyl)-2,4-dioxo-1,2,3,4-tetrahydroquinazoline-7-carboxamide]
≤ 5.70 | O=C(NC1CC1)c1ccc2c(=O)n(C(CC3CCOCC3)C(=O)Nc3ncc(Cl)s3)cnc2c1 (centres unmarked) [Compound 180, 3-(1-(5-chlorothiazol-2-ylamino)-1-oxo-3-(tetrahydro-2H-pyran-4-yl)propan-2-yl)-N-cyclopropyl-4-oxo-3,4-dihydroquinazoline-7-carboxamide]
≤ 5.70 | O=C(NC1CC1)c1ccc2c(=O)n(C(CC3CCOCC3)C(=O)Nc3ncc(Cl)s3)c(=O)[nH]c2c1 (centres unmarked) [Compound 181, 3-(1-(5-chlorothiazol-2-ylamino)-1-oxo-3-(tetrahydro-2H-pyran-4-yl)propan-2-yl)-N-cyclopropyl-2,4-dioxo-1,2,3,4-tetrahydroquinazoline-7-carboxamide]
5.80 to 6.00 | CS(=O)(=O)c1csc2c(=O)n(C(CC3CCCCC3)C(=O)Nc3ccc(C(N)=O)cn3)cnc12 (centres unmarked) [Compound 182, 6-(3-cyclohexyl-2-(7-(methylsulfonyl)-4-oxothieno[3,2-d]pyrimidin-3(4H)-yl)propanamido)nicotinamide]
5.80 to 6.00 | CS(=O)(=O)c1csc2c(=O)n(C(CC3CCCCC3)C(=O)Nc3ccc(Cl)cn3)cnc12 (centres unmarked) [Compound 184, N-(5-chloropyridin-2-yl)-3-cyclohexyl-2-(7-(methylsulfonyl)-4-oxothieno[3,2-d]pyrimidin-3(4H)-yl)propanamide]
≤ 5.70 | Cc1ccc(NC(=O)C(CC2CCCCC2)n2cnc3ccc(F)cc3c2=O)nc1 (centres unmarked) [Compound 192, 3-cyclohexyl-2-(6-fluoro-4-oxoquinazolin-3(4H)-yl)-N-(5-methylpyridin-2-yl)propanamide]
≤ 5.70 | COC(=O)c1ccc(NC(=O)C(CC2CCCCC2)n2cnc3ccc(F)cc3c2=O)nc1 (centres unmarked) [Compound 193, methyl 6-(3-cyclohexyl-2-(6-fluoro-4-oxoquinazolin-3(4H)-yl)propanamido)nicotinate]
6.10 to 6.30 | O=C(Nc1ccc2ccccc2n1)C(CC1CCCCC1)n1cnc2ccc(F)cc2c1=O (centres unmarked) [Compound 195, 3-cyclohexyl-2-(6-fluoro-4-oxoquinazolin-3(4H)-yl)-N-(quinolin-2-yl)propanamide]
5.80 to 6.00 | COC(=O)c1ccc(NC(=O)[C@H](CC2CCCCC2)n2cnc3ccc(F)cc3c2=O)nc1 [Compound 203, (S)-methyl 6-(3-cyclohexyl-2-(6-fluoro-4-oxoquinazolin-3(4H)-yl)propanamido)nicotinate]
5.80 to 6.00 | COC(=O)c1ccc(NC(=O)C(CC2CCCCC2)n2cnc3cc(F)ccc3c2=O)nc1 (centres unmarked) [Compound 205, methyl 6-(3-cyclohexyl-2-(7-fluoro-4-oxoquinazolin-3(4H)-yl)propanamido)nicotinate]
5.80 to 6.00 | COC(=O)c1ccc(NC(=O)C(CC2CCCCC2)n2cnc3c(C)cc(Cl)cc3c2=O)nc1 (centres unmarked) [Compound 207, methyl 6-(2-(6-chloro-8-methyl-4-oxoquinazolin-3(4H)-yl)-3-cyclohexylpropanamido)nicotinate]
5.80 to 6.00 | COC(=O)c1ccc(NC(=O)C(CC2CCCCC2)n2cnc3c(C(F)(F)F)cccc3c2=O)nc1 (centres unmarked) [Compound 209, methyl 6-(3-cyclohexyl-2-(4-oxo-8-(trifluoromethyl)quinazolin-3(4H)-yl)propanamido)nicotinate]
5.80 to 6.00 | COC(=O)c1ccc(NC(=O)[C@H](CC2CCCCC2)n2cnc3c(C(F)(F)F)cccc3c2=O)nc1 [Compound 210, (S)-methyl 6-(3-cyclohexyl-2-(4-oxo-8-(trifluoromethyl)quinazolin-3(4H)-yl)propanamido)nicotinate]
≥ 6.40 | COC(=O)c1ccc(NC(=O)[C@@H](CC2CCCCC2)n2cnc3c(C(F)(F)F)cccc3c2=O)nc1 [Compound 211, (R)-methyl 6-(3-cyclohexyl-2-(4-oxo-8-(trifluoromethyl)quinazolin-3(4H)-yl)propanamido)nicotinate]
